Entries after “also recorded” stand apart in the source; their conditions may differ. One block for each compound: values may come before it.
Experiments:
PCSK9 [1] = experiment: ELISA of secreted PCSK9 protein in HepG2 cells; format: cell-based, human
Protocol: (§1) Additional secondary assays were performed in HepG2 cells to further characterize the cellular response to treatment with select confirmed TRIB1 inducer hits. The results of the ELISA, CTG, and qPCR secondary assays are summarized in Table B. For all secondary assays, the experiments were performed using powders of freshly purified compounds.
(§2) To further characterize the relationship of TRIB1 induction and PCSK9 reduction, ELISAs were performed to measure the levels of secreted ApoB, PCSK9, and LDLR. […] As predicted treatment with TRIB1 inducer hits caused a decrease in ApoB levels detected by ELISA. In parallel effort, 3200 BIOA and NATP compounds were screened for PCSK9 expression inhibitors. Hits were defined as inducing greater than 3-fold downregulation of PCSK9, and 3.8% of the screened compounds were confirmed as hits. […] In further experiments, a strong correlation was confirmed between TRIB1 induction and PCSK9 repression in DOS Collection hits. ELISA analysis confirmed that treatment with TRIB1 inducers reduced the PCSK9 protein levels. LDLR protein levels were also analyzed by ELISA to determine whether compounds that modulate both TRIB1 and PCSK9 had any effect on LDLR protein levels.

LDLR [2] = experiment: qPCR LDLR expression in HepG2 cells; format: cell-based, human; details: for LDLR expression (in words): HepG2, qPCR
Protocol: (§3) In the primary screen, HepG2 cells were plated in 384-well plates at 2000 cells per well and incubated for 20 hours with each compound in duplicate at 10 microM concentration. Then RNA was isolated, reverse-transcribed to cDNA, and stored at −80° C. Expression levels of TRIB1 and other target genes, such as SORT1 and PCSK9, were determined by quantitative PCR. Relative gene expression level was normalized to expression of the housekeeping gene, GAPDH. A “hit” was defined as those compounds that caused a greater than 2-fold increase in relative target gene expression when normalized to GAPDH expression, compared to DMSO-treated control. Using these criteria, 130 hits were identified for TRIB1 (0.8% hit rate).
(§4) Further analysis of the expression levels of various proteins in the cholesterol and triglyceride biosynthetic pathways in response to TRIB1 inducer treatment was performed. In particular, transcript levels of additional lipoprotein metabolism pathway proteins SCAP, SREBF1, SREBF2, HMGCR, HMGCS, SCD1, FASN and MTTP were assessed by qPCR, along with TRIB1, LDLR, and PCSK9. The gene expression profile for the same subset of genes was also assessed after treatment with the statin atorvastatin (Lipitor), commonly used in therapy for hypercholesterolemia and other cardiovascular diseases.
(§5) The kinetics of the modulation of TRIB1, LDLR, PCSK9 and MTTP gene expression after treatment by select TRIB1 inducer compounds was monitored by qPCR analysis (FIG. 4). RNA was extracted from cells at various timepoints over 28 hours of treatment (0, 2, 4, 6, 8, 24, 28 hours). Specifically, compounds 12a and 14a induced transcriptional responses over time similar to those produced by berberine, a plant alkaloid used in Chinese medicine. […] Both compound 12a and compound 14a induce TRIB1 and LDLR and repress PCSK9 and MTTP expression with similar kinetics and similar fold change as berberine Importantly, both compounds induce these gene expression changes at much lower concentrations than berberine. […] This increased potency indicates the potential therapeutic efficacy of such compounds for treatment of cardiovascular diseases, particularly hypercholesterolemia and related conditions.

MTTP = experiment: qPCR MTTP expression in HepG2 cells; format: cell-based, human; details: 28 hour time course
Protocol: as §4
The kinetics of the modulation of TRIB1, LDLR, PCSK9 and MTTP gene expression after treatment by select TRIB1 inducer compounds was monitored by qPCR analysis (FIG. 4). RNA was extracted from cells at various timepoints over 28 hours of treatment (0, 2, 4, 6, 8, 24, 28 hours). Specifically, compounds 12a and 14a induced transcriptional responses over time similar to those produced by berberine, a plant alkaloid used in Chinese medicine. […] Both compound 12a and compound 14a induce TRIB1 and LDLR and repress PCSK9 and MTTP expression with similar kinetics and similar fold change as berberine Importantly, both compounds induce these gene expression changes at much lower concentrations than berberine. […]

PCSK9 [3] = experiment: qPCR PCSK9 expression in HepG2 cells; format: cell-based, human; details: for PCSK9 expression (in words): qPCR
Protocol: as §3, §4, §5

HepG2 cells [4] = experiment: BODIPY-FL LDL uptake in HepG2 cells (high content microscopy); format: cell-based, human; details: treated 20 hours; BODIPY-FL LDL uptake monitored 5 hours
Protocol: TRIB1 inducers increase the rate of LDL uptake. HepG2 cells grown under standard culture conditions (10% FBS) were treated for 20 hours with compounds 2a, 14a and 12a at indicated concentrations and the uptake of BODIPY-FL conjugated LDL particles was monitored for 5 hours using high content microscopy. To control for regulation of LDL uptake by cholesterol, cells were grown in media depleted for (0.5% LPDS—lipoprotein deficient serum) or supplemented with cholesterol (0.5% LPDS plus cholesterol ([…] cholesterol and […] 25-OH cholesterol)).

TRIB1 [5] = experiment: qPCR TRIB1 expression in HepG2 cells; format: cell-based, human; details: for TRIB1 expression (in words) / potency relative to berberine: HepG2; for TRIB1 expression (in words): qPCR; for potency relative to berberine: TRIB1, LDLR, PCSK9 and MTTP gene expression changes
Protocol: as §3, §4, §5

ApoB = experiment: ELISA of secreted ApoB in HepG2 cells; format: cell-based, human
Protocol: as §1, §2

LDLR [6] = experiment: qPCR LDLR expression in HepG2 cells; format: cell-based, human; details: for induction of LDLR expression in combination with simvastatin (in words): overnight simvastatin, then compound
TRIB1 [7] = experiment: qPCR TRIB1 expression in HepG2 cells; format: cell-based; details: Homo sapiens, HepG2; induction of TRIB1 and LDLR transcript levels; read-out: half maximal effective concentration (EC50)
HepG2 cells [8] = experiment: Cell Titer Glo (CTG) cell viability assay; format: cell-based, human; parameters: key: A: Increase <2-fold; B: Increase >2-fold; X: Decrease <2-fold; Y: Decrease >2-fold; No significant change; details: cell viability (ATP)
Protocol: Cell viability was determined using a Cell Titer Glo (CTG) assay ([…]) after treatment with TRIB1 inducer compounds. In this assay, the number of viable cells in culture is based on quantitation of ATP, which indicates metabolically active cells. Addition of the reagent results in cell lysis and generation of a luminescent signal proportional to the amount of ATP present, which is directly proportional to the number of viable, metabolically active cells present in culture. Most TRIB1 inducer compounds had no significant effect on cell viability.

FASN = experiment: qPCR FASN transcript level in HepG2 cells; format: cell-based; details: Homo sapiens, 20 h
Protocol: as §3, §4

SCD1 = experiment: qPCR SCD1 transcript level in HepG2 cells; format: cell-based; details: Homo sapiens, 20 h
Protocol: as §3, §4

APOC3 = experiment: Transcriptional profiling of APOC3 gene in HepG2 cells; format: cell-based, human; details: 10 μM, 24 hours
Text: Expression of APOC3 is associated with increased levels of triglycerides in plasma and carriers of APOC3 gene null mutation have low levels of triglycerides and are protected from cardiovascular disease (Pollin et al., Science, 322:1702, 2008).

SREBF2 = experiment: qPCR SREBF2 transcript level in HepG2 cells; format: cell-based, human
Protocol: as §3, §4

LDLR [9] = experiment: ELISA of LDLR protein in HepG2 cells; format: cell-based, human
Protocol: as §1, §2

HMGCR = experiment: qPCR HMGCR transcript level in HepG2 cells; format: cell-based, human
Protocol: as §3, §4

SCAP = experiment: qPCR SCAP transcript level in HepG2 cells; format: cell-based, human
Protocol: as §3, §4

HMGCS = experiment: qPCR HMGCS transcript level in HepG2 cells; format: cell-based; details: Homo sapiens, 20 h
Protocol: as §3, §4

SREBF1 = experiment: qPCR SREBF1 transcript level in HepG2 cells; format: cell-based, human
Protocol: as §3, §4

[10] = at the maximal dose tested, HepG2
[11] = Homo sapiens, 20 h, HepG2 cells

EC50 (PCSK9 [1]; Homo sapiens, HepG2, 24 h, read-out: ELISA 24 Hr (EC50 uM) PCSK9 decrease): 0.51 to 1 µM
EC50 (LDLR [2]; Homo sapiens, HepG2, 6 h, read-out: qPCR 6Hr (EC50 uM) LDLR up-regulation): 0.51 to 1 µM
EC50 (ApoB; Homo sapiens, HepG2, 24 h, read-out: ELISA 24 Hr (EC50 uM) ApoB decrease): 1.1 to 2 µM
EC50 (TRIB1 [7]): < 1000 nM
SMILES: CN1C(=O)c2cc(NC(=O)c3ccc(C(F)(F)F)cc3)ccc2OC[C@@H]2O[C@H](CC(=O)NC3Cc4ccccc4C3)CC[C@@H]21 [Compound 14a]
LDLR expression (in words) (LDLR [2]): induce; also recorded: robustly induced
MTTP expression (in words) (MTTP): repress
decrease of PCSK9 mRNA below the level induced by cholesterol starvation (PCSK9 [3]; 2.5 μM, 0.5% LPDS, 24 h): 3.8 fold
PCSK9 expression (in words) (PCSK9 [3]; HepG2): repress; also recorded: strongly reduced
expression of PCSK9 stimulated by pretreatment with atorvastatin (in words) (PCSK9 [3]): potently reduced
rate of LDL uptake (in words) (HepG2 cells [4]): robust increase
TRIB1 expression (in words) (TRIB1 [5]): induce; also recorded: robustly induced
potency relative to berberine (TRIB1 [5]): 10 fold
LDLR signal over the non-depleted control (LDLR [6]; 2.5 μM, 0.5% LPDS, 24 h): 9 fold
induction of LDLR expression in combination with simvastatin (in words) (LDLR [6]): additive effect

SMILES: CN(C)c1ccc2c(c1)[C@@H]1C[C@@H](CC(=O)NCc3ccc(Oc4ccccc4)cc3)O[C@@H](CO)[C@@H]1O2 [Compound 12a]
CTG (HepG2 cells [8]): N
fold induction at 10 µM (FASN): > 2
ELISA PCSK9 (PCSK9 [1]; HepG2 cells): Y (Decrease >2-fold)
inhibition of secretion of PCSK9 protein into the media (PCSK9 [1]; [10]): 70%
fold induction at 10 µM (SCD1): > 2
expression of APOC3 gene (in words) (APOC3): down regulates
qPCR SREBF2 (SREBF2): Y (Decrease >2-fold)
LDLR expression (in words) (LDLR [2]): induction of LDLR expression; also recorded: induce; also recorded: robustly induced
qPCR LDLR (LDLR [2]; HepG2 cells): A (Increase <2-fold)
MTTP expression (in words) (MTTP): repress
PCSK9 expression (in words) (PCSK9 [3]; HepG2): repress; also recorded: strongly reduced
fold induction at 10 µM (PCSK9 [3]; [11]): > 2
inhibition of expression of PCSK9 mRNA (PCSK9 [3]; [10]): 70%
expression of PCSK9 stimulated by pretreatment with atorvastatin (in words) (PCSK9 [3]): potently reduced
rate of LDL uptake (in words) (HepG2 cells [4]): robust increase
increase of the LDL receptor protein in the cell (LDLR [9]; HepG2): 3 fold
ELISA LDLR (LDLR [9]; HepG2 cells): B (Increase >2-fold)
qPCR HMGCR (HMGCR): Y (Decrease >2-fold)
TRIB1 expression (in words) (TRIB1 [5]): induce; also recorded: robustly induced
fold induction at 10 µM (TRIB1 [5]; [11]): < 2
potency relative to berberine (TRIB1 [5]): 5 fold
secretion of apoB into the media / ApoB levels (in words) (ApoB; HepG2): inhibited secretion of apoB
ELISA ApoB (ApoB; HepG2 cells): Y (Decrease >2-fold)
qPCR SCAP (SCAP): X (Decrease <2-fold)
fold induction at 10 µM (HMGCS): > 2
qPCR SREBF1 (SREBF1): Y (Decrease >2-fold)
induction of LDLR expression in combination with simvastatin (in words) (LDLR [6]): additive effect

— patent US9526720B2, “Modulators of hepatic lipoprotein metabolism” (The Broad Institute, Inc., priority 2012, dated 2016)
